Source: ChEMBL document CHEMBL5528064, “Invention of MK-7845, a SARS-CoV-2 3CL Protease Inhibitor Employing a Novel Difluorinated Glutamine Mimic” (J Med Chem, 2024)

Assays:
[1] = target: Replicase polyprotein 1ab (Severe acute respiratory syndrome coronavirus 2, UniProt P0DTD1); assay: Inhibition of wild type recombinant SARS-CoV-2 3CLpro (1 to 306 residues) expressed in Escherichia coli (DE3) competent cells using CP488-ESATLQSGLRKAK-(CPQ2)-NH2 as substrate preincubated for 30 mins followed by substrate addition and measured after 4 hrs by FRET assay
[2] = target: CYP3A4 (Homo sapiens, UniProt P08684); assay: Ratio of IC50 for time dependent inhibition of CYP3A4 in human liver microsomes incubated for 30 mins in presence of NADPH to IC50 for time dependent inhibition of CYP3A4 in human liver microsomes incubated for 30 mins in absence of NADPH; parameters: species or system Microsome; conditions: read-out: Ratio IC50
[3] = target: T1, Nuclear receptor subfamily 1 group I member 2 (Homo sapiens, UniProt O75469); assay: Activation of PXR (unknown origin); format: toxicity
T1 sequence (O75469 whole entry): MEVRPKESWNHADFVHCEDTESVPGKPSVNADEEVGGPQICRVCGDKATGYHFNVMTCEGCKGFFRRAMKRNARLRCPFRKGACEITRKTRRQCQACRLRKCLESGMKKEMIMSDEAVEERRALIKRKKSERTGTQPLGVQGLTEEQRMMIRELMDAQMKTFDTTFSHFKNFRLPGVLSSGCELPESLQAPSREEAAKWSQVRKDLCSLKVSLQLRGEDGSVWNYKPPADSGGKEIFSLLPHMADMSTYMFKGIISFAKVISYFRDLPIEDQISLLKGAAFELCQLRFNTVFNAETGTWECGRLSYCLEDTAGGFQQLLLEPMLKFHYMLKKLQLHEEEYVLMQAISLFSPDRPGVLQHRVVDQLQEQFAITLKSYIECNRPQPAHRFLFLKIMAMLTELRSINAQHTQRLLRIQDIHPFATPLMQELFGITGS

[4] = Oral bioavailability in rat; format: ADME, organism-based; conditions: in vivo
[5] = MRT in dog at 3 mg/kg, po or 1 mg/kg, iv measured upto 24 hrs by LC-MS analysis; format: ADME, organism-based, Canis lupus familiaris; conditions: in vivo
[6] = Oral bioavailability in rat at 3 mg/kg measured upto 24 hrs by LC-MS analysis; format: ADME, organism-based; conditions: in vivo
[7] = Oral bioavailability in Wistar-Han rat at 2 mg/kg; format: ADME, organism-based; conditions: in vivo
[8] = Apparent permeability in MDCK cells; format: ADME, cell-based, Canis lupus familiaris; conditions: dog

Sequence of CYP3A4 (P08684 whole entry): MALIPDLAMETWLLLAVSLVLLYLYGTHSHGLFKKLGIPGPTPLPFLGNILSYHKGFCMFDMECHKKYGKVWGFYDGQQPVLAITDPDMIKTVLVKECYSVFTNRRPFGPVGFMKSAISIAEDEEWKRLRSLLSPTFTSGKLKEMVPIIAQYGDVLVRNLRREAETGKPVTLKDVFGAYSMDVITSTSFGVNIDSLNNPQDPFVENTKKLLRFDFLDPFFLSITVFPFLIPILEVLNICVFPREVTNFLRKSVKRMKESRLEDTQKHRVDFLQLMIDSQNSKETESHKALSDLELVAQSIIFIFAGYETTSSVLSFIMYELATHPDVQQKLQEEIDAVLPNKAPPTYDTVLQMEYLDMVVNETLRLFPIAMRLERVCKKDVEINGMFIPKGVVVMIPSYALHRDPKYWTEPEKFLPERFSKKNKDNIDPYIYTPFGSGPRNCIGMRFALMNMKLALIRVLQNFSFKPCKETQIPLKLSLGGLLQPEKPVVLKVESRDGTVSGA

COC(=O)N[C@H](C(=O)N1CC2(CCCCC2)C[C@H]1C(=O)N[C@@H](CCC(F)(F)F)C(=O)C(=O)NC1CC1)C(C)(C)C
IC50 [1]: 382 nM

CNC(=O)C(=O)[C@H](CCC(C)(F)F)NC(=O)[C@@H]1CC2(CCCCC2)CN1C(=O)[C@@H](NC(=O)OC)C(C)(C)C
IC50 shift at 0.5 h [2]: > 1.6
EC50 [3]: 5800 nM

CC(C)C[C@H](NC(=O)OCc1ccccc1)C(=O)N[C@@H](C[C@@H]1CCNC1=O)C(O)S(=O)(=O)[O-].[Na+] (stereo partly drawn)
bioavailability [4]: 3%

COC(=O)N[C@H](C(=O)N1CC2(CCCCC2)C[C@H]1C(=O)N[C@@H](CCC(C)(F)F)C(=O)C(=O)NC1CC1)C(C)(C)C
MRT [5]: 0.8 h
bioavailability [6]: 26%
IC50 shift at 0.5 h [2]: > 1.3
IC50 [1]: 11 nM
EC50 [3]: 6800 nM

COC(=O)N[C@H](C(=O)N1C[C@@H]2CCC[C@@H]2[C@H]1C(=O)N[C@@H](CC[C@H](C)F)C(=O)C(=O)NC1CC1)C(C)(C)C
IC50 [1]: 23 nM

COc1cccc2[nH]c(C(=O)N[C@@H](CC(C)C)C(=O)N[C@@H](C[C@@H]3CCNC3=O)C(=O)CO)cc12 [PF-00835231]
bioavailability [7]: < 2%

COC(=O)N[C@H](C(=O)N1CC2(C[C@H]1C(=O)N[C@@H](CCC(C)(F)F)C(=O)C(=O)NC1CC1)CC2(F)F)C(C)(C)C (stereo partly drawn)
MRT [5]: 3.2 h

COC(=O)N[C@H](C(=O)N1C[C@@H]2CCC[C@@H]2[C@H]1C(=O)N[C@@H](CCC(C)(F)F)C(=O)C(=O)NC1CC1)C(C)(C)C
MRT [5]: 2.7 h
bioavailability [6]: 47%

CC(F)(F)CC[C@H](NC(=O)[C@@H]1CC2(CCCCC2)CN1C(=O)[C@@H](NC(=O)OCc1ccccc1)C1CCCCC1)C(=O)C(=O)NC1CC1
IC50 [1]: 16 nM

COC(=O)N[C@H](C(=O)N1CC2(CCCCC2)C[C@H]1C(=O)N[C@@H](CCC(C)(F)F)C(=O)C(=O)NCc1ccncc1)C(C)(C)C
IC50 shift at 0.5 h [2]: ~1
IC50 [1]: 30 nM
EC50 [3]: > 30000 nM

CC(F)(F)CC[C@H](NC(=O)[C@@H]1[C@@H]2[C@H](CN1C(=O)[C@@H](NC(=O)NC1(CS(=O)(=O)C(C)(C)C)CCCCC1)C(C)(C)C)C2(C)C)C(=O)C(=O)NC1CC1
IC50 [1]: 129 nM

CC(C)(C)NC(=O)N[C@H](C(=O)N1C[C@H]2[C@@H]([C@H]1C(=O)N[C@@H](C[C@@H]1CCNC1=O)C(=O)C(N)=O)C2(C)C)C(C)(C)C
Papp [8]: < 1.13 ×10⁻⁶ cm/s
bioavailability [4]: 0.2%

COC(=O)N[C@H](C(=O)N1CC2(CCOCC2)C[C@H]1C(=O)N[C@@H](CCC(C)(F)F)C(=O)C(=O)NC1CC1)C(C)(C)C
IC50 [1]: 297 nM

COC(=O)N[C@H](C(=O)N1CC2(CCCCC2)C[C@H]1C(=O)N[C@@H](CCC(C)(F)F)C(=O)C(=O)NC1CCCCC1)C(C)(C)C
IC50 shift at 0.5 h [2]: > 6
IC50 [1]: 77 nM
EC50 [3]: 2300 nM

CC(F)(F)CC[C@H](NC(=O)[C@@H]1CC2(CCCCC2)CN1C(=O)c1cc2ccccc2[nH]1)C(=O)C(=O)NC1CC1
IC50 [1]: 64 nM

COC(=O)N[C@H](C(=O)N1C[C@@H]2CCC[C@@H]2[C@H]1C(=O)N[C@@H](CC[C@@H](C)F)C(=O)C(=O)NC1CC1)C(C)(C)C
IC50 [1]: 11 nM

CCCC[C@H](NC(=O)[C@@H]1CC2(CCCCC2)CN1C(=O)[C@@H](NC(=O)OC)C(C)(C)C)C(=O)C(=O)NC1CC1
IC50 [1]: 715 nM

COC(=O)N[C@H](C(=O)N1C[C@@H]2CCC[C@@H]2[C@H]1C(=O)N[C@@H](CCC(C)(C)F)C(=O)C(=O)NC1CC1)C(C)(C)C
IC50 [1]: 26 nM

COC(=O)N[C@H](C(=O)N1CC2(CCCCC2)C[C@H]1C(=O)N[C@@H](CCC(C)(F)F)C(=O)C(=O)NCc1ccccc1)C(C)(C)C
IC50 shift at 0.5 h [2]: > 3.1
EC50 [3]: 3900 nM

CNC(=O)C(=O)[C@H](CCC(C)(F)F)NC(=O)[C@@H]1C[C@H](C(F)(F)F)CCN1C(=O)[C@@H](NC(=O)OC)C(C)(C)C
MRT [5]: 3.1 h
bioavailability [6]: 63%

COC(=O)N[C@H](C(=O)N1C[C@H]2[C@@H]([C@H]1C(=O)N[C@@H](CCC(C)(F)F)C(=O)C(=O)NC1CC1)C21CCOCC1)C(C)(C)C
MRT [5]: 2.4 h
bioavailability [6]: 40%

CC(F)(F)CC[C@H](NC(=O)[C@@H]1CC2(CCCCC2)CN1C(=O)C(O)c1cccc(F)c1)C(=O)C(=O)NC1CC1 (stereo partly drawn)
IC50 [1]: 56 nM

COC(=O)N[C@H](C(=O)N1CC2(CCCCC2)C[C@H]1C(=O)N[C@@H](CCC(F)F)C(=O)C(=O)NC1CC1)C(C)(C)C
IC50 [1]: 123 nM

COC(=O)N[C@H](C(=O)N1CC2(CCC(F)(F)CC2)C[C@H]1C(=O)N[C@@H](CCC(C)(F)F)C(=O)C(=O)NC1CC1)C(C)(C)C
IC50 [1]: 270 nM

COC(=O)N[C@H](C(=O)N1CC[C@@H](C(F)(F)F)C[C@H]1C(=O)N[C@@H](CCC(C)(F)F)C(=O)C(=O)NC1CC1)C(C)(C)C
MRT [5]: 8.6 h
bioavailability [6]: 40%

CC(C)(C)CC(=O)N1CC2(CCCCC2)C[C@H]1C(=O)N[C@@H](CCC(C)(F)F)C(=O)C(=O)NC1CC1
IC50 [1]: 890 nM

COC(=O)N[C@H](C(=O)N1CCC2(CC2)C[C@H]1C(=O)N[C@@H](CCC(C)(F)F)C(=O)C(=O)NC1CC1)C(C)(C)C
Papp [8]: 16 ×10⁻⁶ cm/s
MRT [5]: 3.6 h
bioavailability [6]: 60%

COC(=O)N[C@H](C(=O)N1CC2(CCCCC2)C[C@H]1C(=O)N[C@@H](CC1CC1(F)F)C(=O)C(=O)NC1CC1)C(C)(C)C (stereo partly drawn)
IC50 [1]: 355 nM

COC(=O)N[C@H](C(=O)N1CC2(CCCCC2)C[C@H]1C(=O)N[C@@H](CCC(C)(F)F)C(=O)C(N)=O)C(C)(C)C
IC50 shift at 0.5 h [2]: > 1
IC50 [1]: 25 nM
EC50 [3]: > 30000 nM
